Experimental findings from ChEMBL document CHEMBL1201862, “PubChem BioAssay data set” (2004) are described below.

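Where inhibition never reached the appropriate level, the endpoint shown equals the highest concentration tested. Otherwise, values were interpolated linearly from a five-concentration, 48-hour dose response in 96-well plates. GI50 = concentration required for 50% inhibition of growth.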 Activity calls are given as the source filed them. Cut-off read from the data, not from the text of the source: active = GI50 up to about 1.1 µM and inactive = higher.

Common to all, as to test: NCI-60 cell line screen, 48 h
The subject of test [1] is A549.
Test [2] deals with BT-549.
The test system of test [3] is COLO 205.
In test [4] the test system is HCC 2998.
Test [5] concerns HCT-15.
Test [6] has as its system HL-60.
Test [7] deals with HT-29.
Test [8] deals with Hs-578T.
Test [9] concerns KM12.
Test [10] has as its system M14.
Test [11] relates to NCI-H226.
For test [12], the system named is NCI/ADR-RES.
For test [13], the system named is OVCAR-4.
The subject of test [14] is RXF 393.
Test [15] has as its system SK-MEL-28.
Test [16] has as its system SK-MEL-5.
Test [17] has as its system SK-OV-3.
Test [18] relates to SR.
Test [19] concerns UACC-257.
Test [20] relates to NCI-H522.

In the case of `O=C(OC(=C(c1ccccc1)c1ccccc1)N1CCCC1=S)C(c1ccccc1)c1ccccc1`, the GI50 in test [1] is 4.67 µM (inactive); in test [2], 5.05 µM (inactive); in [3], 2.21 µM (inactive); in test [4] it was 9.44 µM (inactive); in test [5], 4.13 µM; in test [6], > 10 µM (inactive). Moreover, the GI50 was 4.42 µM (inactive) in [7]; > 10 µM (inactive) in test [8]; 4.5 µM (inactive) in [9]; > 10 µM (inactive) in [10]; 4.78 µM (inactive) in test [11]; 5.87 µM (inactive) in test [12]. Moreover, the GI50 is 8.83 µM (inactive) in test [13]; > 10 µM (inactive) in test [14]; > 10 µM (inactive) in test [15]; > 10 µM (inactive) in test [16]; 9.18 µM (inactive) in test [17]; > 10 µM (inactive) in test [18]. The GI50 in [19] is > 10 µM (inactive).

`Clc1ccc(C2=C(c3ccccc3)C(c3ccc(Cl)cc3)N3C(=N[C@H]4CCCC[C@@H]43)N2)cc1` (stereo partly drawn): the GI50 in test [1] is 10.3 µM (inactive); in test [2], 14.6 µM (inactive); in [3], 6.64 µM (inactive); in test [4], 3.08 µM (inactive); in test [5], 5.96 µM; in test [6], 3.19 µM (inactive). The GI50 in test [7] is 3.27 µM (inactive); in [8] it was 19.4 µM (inactive); in test [9], 9.4 µM (inactive); in test [10], 12.4 µM (inactive); in test [11] it was 21 µM (inactive); in test [12] it was 11.4 µM (inactive). Also, the GI50 in [13] was 9.2 µM (inactive); in test [14], 13.9 µM (inactive); in [15], 13.7 µM (inactive); in test [16] it was 12.3 µM (inactive); in test [17], 17.1 µM (inactive); in test [18], 2.09 µM (inactive). Besides, the GI50 in test [19] is 14.9 µM (inactive).

In the case of `c1cc2n(n1)CCN2`, the GI50 in [1] was 1050 µM (inactive); in test [2], 4840 µM (inactive); in [3], 3680 µM (inactive); in [4], 1690 µM (inactive); in [5], 2140 µM; in test [6], 238 µM (inactive). Besides, the GI50 in test [7] is 3130 µM (inactive); in test [8], > 1470 µM (inactive); in test [9] it was 1810 µM (inactive); in [10], 486 µM (inactive); in test [11], 1960 µM (inactive); in test [20], 2300 µM (inactive). For the same molecule, the GI50 was 561 µM (inactive) in test [12]; 5550 µM (inactive) in test [13]; 1390 µM (inactive) in test [14]; 7740 µM (inactive) in test [15]; 847 µM (inactive) in test [16]; 3040 µM (inactive) in test [17]. In addition, the GI50 is 733 µM (inactive) in test [18] and 5980 µM (inactive) in [19].

On to `COC(=O)c1c(O)ccc2c1c1c(n2Cc2ccccn2)C(=O)c2ccccc2C1=O`, for which the GI50 in test [1] was 29.8 µM (inactive); in test [2], > 100 µM (inactive); in test [3] it was 14.5 µM (inactive); in [4], 13.2 µM (inactive); in test [5], 46 µM; in test [6] it was 62.2 µM (inactive). The GI50 in test [7] is 4.22 µM (inactive); in [8], 46.1 µM (inactive); in test [9], 46.2 µM (inactive); in test [10] it was > 100 µM (inactive); in test [11] it was 70.1 µM (inactive); in [20] it was 15.8 µM (inactive). Moreover, the GI50 in [12] is 41.3 µM (inactive); in test [14] it was 52.5 µM (inactive); in [15], 19.2 µM (inactive); in [16], 50.5 µM (inactive); in test [17] it was 21.7 µM (inactive); in test [18] it was 22 µM (inactive). The GI50 in test [19] was > 100 µM (inactive).

Regarding `CCN(CC)CCO/N=C1\CC[C@H]2[C@@H]3CC=C4C[C@@H](O)CC[C@]4(C)[C@H]3CC[C@]12C`, the GI50 in [2] was 16.8 µM (inactive); in [3] it was 12.8 µM (inactive); in test [4] it was 16.9 µM (inactive); in test [5], 10.5 µM; in test [6] it was 9.77 µM (inactive); in [7], 3.67 µM (inactive). The GI50 in [8] was 34 µM (inactive); in test [9] it was 17.8 µM (inactive); in test [11], 15 µM (inactive); in test [20] it was 17.3 µM (inactive); in [12] it was 26.1 µM (inactive); in test [13], 25.5 µM (inactive). The GI50 in test [14] is 17.5 µM (inactive); in [15] it was 15.7 µM (inactive); in test [16], 12.1 µM (inactive); in [18] it was 5.31 µM (inactive); in test [19], 16.7 µM (inactive).

In the case of `OCCOCCN1CCN(c2nc(N3CCCC3)c3nc(Cl)c(NCc4ccccc4)nc3n2)CC1`, the GI50 in test [1] was 13 µM (inactive); in [2] it was 15.3 µM (inactive); in test [3] it was 7.35 µM (inactive); in test [4], 4.29 µM (inactive); in test [5] it was 4.27 µM; in test [6] it was 12.1 µM (inactive). Further, the GI50 is 3.92 µM (inactive) in [7]; 17.7 µM (inactive) in [8]; 10.1 µM (inactive) in test [9]; 11.6 µM (inactive) in test [10]; 20.8 µM (inactive) in [11]; 15.4 µM (inactive) in test [20]. Further, the GI50 is 14.5 µM (inactive) in test [12]; 15 µM (inactive) in test [13]; 1.98 µM (inactive) in test [14]; 14.4 µM (inactive) in [15]; 5.55 µM (inactive) in test [16]; 17.2 µM (inactive) in test [17]. Besides, the GI50 in test [18] was 4.38 µM (inactive); in test [19], 14.1 µM (inactive).

Take `O=C1/C(=C/c2cccs2)N=C(c2ccccc2)N1C1Nc2cc3c(cc2S1)NC(N1C(=O)/C(=C/c2cccs2)N=C1c1ccccc1)S3` (stereo not drawn): the GI50 in [1] was 14.6 µM (inactive); in test [2], 18.1 µM (inactive); in [4], 19.3 µM (inactive); in test [5] it was 15.6 µM; in [6], 2.59 µM (inactive); in [7], 25.3 µM (inactive). Besides, the GI50 in test [8] is 24.2 µM (inactive); in test [9], 32.8 µM (inactive); in test [10] it was 18.2 µM (inactive); in [11], 20.3 µM (inactive); in [20], 13.4 µM (inactive); in test [12] it was 13.9 µM (inactive). In addition, the GI50 in [13] is 24.9 µM (inactive); in test [14], 23.3 µM (inactive); in [15], 32.3 µM (inactive); in test [16] it was 17 µM (inactive); in [18] it was 3.07 µM (inactive); in test [19], 71.9 µM (inactive).

On to `Cc1n[nH]c(C(F)(F)F)c1/N=N/N(C)C`, for which the GI50 was 18.4 µM (inactive) in test [1]; 11.7 µM (inactive) in test [2]; 2.98 µM (inactive) in test [3]; 14 µM (inactive) in [4]; 7.26 µM in test [5]; 12.6 µM (inactive) in test [6]. Also, the GI50 in [7] was 4.98 µM (inactive); in [8], 15.6 µM (inactive); in test [9] it was 7.57 µM (inactive); in [10] it was 14.7 µM (inactive); in test [11], 1.95 µM (inactive); in [20] it was 1.37 µM (inactive). For the same molecule, the GI50 is 7.13 µM (inactive) in test [12]; 13 µM (inactive) in test [14]; 17.9 µM (inactive) in [15]; > 100 µM (inactive) in test [16]; 12.5 µM (inactive) in test [17]; 4.47 µM (inactive) in test [18]. Moreover, the GI50 in test [19] is 14.7 µM (inactive).

With `CCn1c(-c2ccc(C)cc2)cs/c1=N\C(P(=O)(O)O)P(=O)(O)O`, the GI50 is > 100 µM (inactive) in test [1]; > 100 µM (inactive) in test [2]; > 100 µM (inactive) in [3]; > 100 µM (inactive) in test [4]; greater than 100 µM in test [5]; 0.337 µM (active) in [6]. Besides, the GI50 in [7], in test [8], in test [9], in test [10], in test [11] and in [20] was > 100 µM (inactive) throughout. In addition, the GI50 in [12] was > 100 µM (inactive); in test [14], > 100 µM (inactive); in test [15], > 100 µM (inactive); in [16], 31.6 µM (inactive); in test [17], > 100 µM (inactive); in test [18], > 100 µM (inactive). In addition, the GI50 in test [19] is > 100 µM (inactive).

As to `Cc1ccc(C(=O)Cn2c(C(=O)/C=C/c3cccs3)nc3ccccc32)cc1`, the GI50 in [1] is 32.6 µM (inactive); in test [2] it was 34.4 µM (inactive); in [3], 41.1 µM (inactive); in [4], 21 µM (inactive); in test [5] it was 31.3 µM; in test [6] it was 22.7 µM (inactive). In addition, the GI50 in test [7] is 38.5 µM (inactive); in test [8], 20.7 µM (inactive); in test [9], 24.2 µM (inactive); in test [10] it was 49.9 µM (inactive); in test [11], > 100 µM (inactive); in test [12], 23.2 µM (inactive). Besides, the GI50 in [13] is 29.5 µM (inactive); in test [14] it was 94.6 µM (inactive); in [15], 68.5 µM (inactive); in [16] it was 36.1 µM (inactive); in test [17] it was > 100 µM (inactive); in test [18] it was 6.68 µM (inactive). Besides, the GI50 in [19] was 24.4 µM (inactive).

For `CCc1nc(N)nc(N)c1-c1ccc(Cl)c(Cl)c1` [ETOPRINE], the GI50 in test [1] was 0.789 µM (active); in [2] it was 51.3 µM (inactive); in [3], 8.43 µM (inactive); in [4] it was 12.4 µM (inactive); in test [5], 3.75 µM; in test [6], > 100 µM (inactive). For the same molecule, the GI50 in [7] was 0.879 µM (active); in test [8], 43 µM (inactive); in test [9], 8.51 µM (inactive); in test [10], 0.675 µM (active); in test [20], 5.81 µM (inactive); in test [12], 1.47 µM (inactive). Besides, the GI50 was > 100 µM (inactive) in [13]; 59.3 µM (inactive) in test [14]; > 100 µM (inactive) in test [15]; 4.65 µM (inactive) in test [16]; > 100 µM (inactive) in test [17]; 0.755 µM (active) in test [18]. Moreover, in test [19], the GI50 is 8.38 µM (inactive).
